Where a name gives a salt, the structure may show the parent alone. Some results are limits rather than exact numbers.

The first assay concerns Aβ1-42 production. In words: Cellular assay for inhibition of Aβ1-42 production (H4 APP751 SWE clone 8.20). The class given is cell-based. As to conditions: 19 h, H4 APP751 SWE clone 8.20 cells, 19 h incubation; class symbols; read-out: Activity Rating (Aβ42 cellular IC50). An outline of the steps: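 Compound-treated cells were incubated 19 h at 37 °C in 5% CO2. Aβ42 in the cell plate was detected overnight at 4 °C with an Aβ42 neoepitope antibody (565, Wallac-labelled, 0.8 ng/well) plus N-terminal antibody 26D6 (APC, 75 ng/well) in 40 mM Tris-HCl pH 7.4, 0.2% BSA. IC50s came from curve fitting.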
Take `CCNc1nc(Nc2ccc(-n3cnc(Cl)c3)c(OC)c2)nc2c1CCC2c1ccc(OC(F)(F)F)cc1` (racemic) [Example 98, N^2-(4-(4-Chloro-1H-imidazol-1-yl)-3-methoxyphenyl)-N^4-ethyl-7-(4-(trifluoromethoxy)phenyl)-6,7-dihydro-5H-cyclopenta[d]pyrimidine-2,4-diamine]: the IC50 lay in the range of 10 to 100 nM. The same measure, in the same setting: the same measure for `CNc1nc(Nc2ccc(-n3cnc(Cl)c3)c(OC)c2)nc2c1CCC2c1ccc(F)cc1` (stereo not drawn) [Example 11, N^2-(4-(4-Chloro-1H-imidazol-1-yl)-3-methoxyphenyl)-7-(4-fluorophenyl)-N^4-methyl-6,7-dihydro-5H-cyclopenta[d]pyrimidine-2,4-diamine]: 1.5 to 9.9 nM. Same read-out and setting: the same measure for `CNc1nc(Nc2ccc(-n3ncnc3C)c(F)c2)nc2c1CCC2c1ccc(F)cc1` (stereo not drawn) [Example 12, N^2-(3-Fluoro-4-(5-methyl-1H-1,2,4-triazol-1-yl)phenyl)-7-(4-fluorophenyl)-N^4-methyl-6,7-dihydro-5H-cyclopenta[d]pyrimidine-2,4-diamine]: 1.5 to 9.9 nM; for `CCNc1nc(Nc2ccc(-n3ncnc3C)c(F)c2)nc2c1CN(C)CC2c1ccccc1` (stereo not drawn) [Example 153, N4-ethyl-N2-(3-fluoro-4-(5-methyl-1H-1,2,4-triazol-1-yl)phenyl)-6-methyl-8-phenyl-5,6,7,8-tetrahydropyrido[4,3-d]pyrimidine-2,4-diamine]: 10 to 100 nM. The same measure, in the same setting: the same measure for `CNc1nc(Nc2ccc(-n3ncnc3C)c(F)c2)nc2c1CCC2c1ccccc1` (stereo not drawn) [Example 3, N2-(3-fluoro-4-(5-methyl-1H-1,2,4-triazol-1-yl)phenyl)-N4-methyl-7-phenyl-6,7-dihydro-5H-cyclopenta[d]pyrimidine-2,4-diamine]: 10 to 100 nM; for `CNc1nc(Nc2ccc(-n3ncnc3C)c(OC)c2)nc2c1CC[C@@H]2c1ccc(F)cc1` [Example 264B, (R)-7-(4-fluorophenyl)-N2-(3-methoxy-4-(5-methyl-1H-1,2,4-triazol-1-yl)phenyl)-N4-methyl-6,7-dihydro-5H-cyclopenta[d]pyrimidine-2,4-diamine]: 10 to 100 nM. Turning to `CNc1nc(Nc2ccc(-n3cnc(C)n3)c(OC)c2)nc2c1CC[C@H]2c1ccccc1OC` (single isomer, unassigned) [Example 266A], the concentration for half-maximal inhibition (IC50) was in the range of 10 to 100 nM. Still for that read-out and setting: the same measure for `COc1cc(Nc2nc3c(c(N(C)C)n2)CCC3c2ccc(OC(F)(F)F)cc2)ccc1-n1cnc(Cl)c1` (racemic) [Example 100, N^2-(4-(4-Chloro-1H-imidazol-1-yl)-3-methoxyphenyl)-N^4,N^4-dimethyl-7-(4-(trifluoromethoxy)phenyl)-6,7-dihydro-5H-cyclopenta[d]pyrimidine-2,4-diamine]: 1.5 to 9.9 nM; for `CCNc1nc(Nc2ccc(-n3cnc(Cl)c3)c(OC)c2)nc2c1CCN(C)C2c1ccc(F)cc1` (stereo not drawn) [Example 175, N2-(4-(4-chloro-1H-imidazol-1-yl)-3-methoxyphenyl)-N4-ethyl-8-(4-fluorophenyl)-7-methyl-5,6,7,8-tetrahydropyrido[3,4-d]pyrimidine-2,4-diamine]: 10 to 100 nM; for `CNc1nc(Nc2ccnc(C)c2)nc2c1CCC2c1ccccc1` (stereo not drawn) [Example 216, N4-methyl-N2-(2-methylpyridin-4-yl)-7-phenyl-6,7-dihydro-5H-cyclopenta[d]pyrimidine-2,4-diamine]: over 1000 nM.

Take `CCNc1nc(Nc2ccc(-n3cnc(C)n3)c(F)c2)nc2c1CN(C)CC2c1ccccc1` (stereo not drawn) [Example 152, N4-ethyl-N2-(3-fluoro-4-(3-methyl-1H-1,2,4-triazol-1-yl)phenyl)-6-methyl-8-phenyl-5,6,7,8-tetrahydropyrido[4,3-d]pyrimidine-2,4-diamine]: the IC50 was in the range of 10 to 100 nM. The same measure, in the same setting: the same measure for `Cc1ncnn1-c1ccc(Nc2nc3c(c(N4CC(F)(F)C4)n2)CCC3c2ccc(F)cc2)cc1F` (racemic) [Example 16, 4-(3,3-difluoroazetidin-1-yl)-N-(3-fluoro-4-(5-methyl-1H-1,2,4-triazol-1-yl)phenyl)-7-(4-fluorophenyl)-6,7-dihydro-5H-cyclopenta[d]pyrimidin-2-amine]: 10 to 100 nM. Consider `COc1cc(Nc2nc3c(c(N4CC(F)(F)C4)n2)CN(C)CC3c2ccc(F)cc2)ccc1-n1cnc(Cl)c1` (stereo not drawn) [Example 159, N-(4-(4-chloro-1H-imidazol-1-yl)-3-methoxyphenyl)-4-(3,3-difluoroazetidin-1-yl)-8-(4-fluorophenyl)-6-methyl-5,6,7,8-tetrahydropyrido[4,3-d]pyrimidin-2-amine], for which the half-inhibitory concentration (IC50) is 10 to 100 nM. As to `COc1cc(Nc2nc3c(c(N4CCC(N(C)C)C4)n2)CCC3c2ccc(F)cc2)ccc1-n1cnc(Cl)c1` (single isomer, unassigned) [Example 29A, N-(4-(4-chloro-1H-imidazol-1-yl)-3-methoxyphenyl)-4-(3-(dimethylamino)pyrrolidin-1-yl)-7-(4-fluorophenyl)-6,7-dihydro-5H-cyclopenta[d]pyrimidin-2-amine], the IC50 was 10 to 100 nM.

As for `COc1cc(Nc2nc3c(c(N4CCC(F)(F)C4)n2)CCC3c2cc(F)c(F)c(F)c2)ccc1-n1cnc(Cl)c1` (racemic) [Example 107, N-(4-(4-Chloro-1H-imidazol-1-yl)-3-methoxyphenyl)-4-(3,3-difluoropyrrolidin-1-yl)-7-(3,4,5-trifluorophenyl)-6,7-dihydro-5H-cyclopenta[d]pyrimidin-2-amine], the IC50 was 10 to 100 nM.

The same assay, now with this note: 19 h, H4 APP751 SWE clone 8.20 cells, 19 h incubation; read-out: Activity Rating (Aβ42 cellular IC50), numeric value.
As to `COc1cc(Nc2nc3c(c(N4C[C@@H](C)O[C@@H](C)C4)n2)COC3c2ccc(F)cc2)ccc1-n1cnc(Cl)c1` (stereo partly drawn) [Example 84B, N-(4-(4-chloro-1H-imidazol-1-yl)-3-methoxyphenyl)-4-((2S,6R)-2,6-dimethylmorpholino)-7-(4-fluorophenyl)-5,7-dihydrofuro[3,4-d]pyrimidin-2-amine], the IC50 was found to be 290 nM. The same measure, in the same setting: the same measure for `COc1cc(Nc2nc(Nc3cc(C(C)C)ccc3C)c3c(n2)C(c2ccccc2)CC3)ccc1-n1cnc(Cl)c1` (stereo not drawn) [Example 214, N2-(4-(4-chloro-1H-imidazol-1-yl)-3-methoxyphenyl)-N4-(5-isopropyl-2-methylphenyl)-7-phenyl-6,7-dihydro-5H-cyclopenta[d]pyrimidine-2,4-diamine]: 77 nM.

The assay is the same for the next values; noted with them: H4 APP751 SWE clone 8.20 cells, 19 h incubation; class symbols; TFA; read-out: Activity Rating (Aβ42 cellular IC50).
Regarding `COc1cc(Nc2nc(N[C@H](C)C3CC3)c3c(n2)C(c2ccc(F)cc2)CC3)ccc1-n1cnc(Cl)c1` (mixture of isomers) [Example 49, N2-(4-(4-chloro-1H-imidazol-1-yl)-3-methoxyphenyl)-N4-((R)-1-cyclopropylethyl)-7-(4-fluorophenyl)-6,7-dihydro-5H-cyclopenta[d]pyrimidine-2,4-diamine, 2 TFA], the IC50 fell in the range of 1.5 to 9.9 nM.

The same assay, now with this note: H4 APP751 SWE clone 8.20 cells, 19 h incubation; class symbols; read-out: Activity Rating (Aβ42 cellular IC50).
Consider `COc1cc(Nc2nc3c(c(N4CCC4)n2)CCC3c2ccccc2)ccc1-n1cnc(Cl)c1` (single isomer, unassigned) [Example 6A, 4-(azetidin-1-yl)-N-(4-(4-chloro-1H-imidazol-1-yl)-3-methoxyphenyl)-7-phenyl-6,7-dihydro-5H-cyclopenta[d]pyrimidin-2-amine], for which the IC50 was 1.5 to 9.9 nM. `COc1cc(Nc2nc(N[C@@H](C)C3CC3)c3c(n2)C(c2ccc(F)cc2)CC3)ccc1-n1cnc(Cl)c1` (single isomer, unassigned) [Example 50A]: the 50% inhibitory concentration (IC50) lay within 1.5 to 9.9 nM.

Take `CNc1nc(Nc2ccc(-n3ncnc3C)c(F)c2)nc2c1CCC2c1ccc(F)cc1` (stereo not drawn) [Example 26, N^2-(3-fluoro-4-(5-methyl-1H-1,2,4-triazol-1-yl)phenyl)-7-(4-fluorophenyl)-N^4-methyl-6,7-dihydro-5H-cyclopenta[d]pyrimidine-2,4-diamine]: the IC50 was 1.5 to 9.9 nM. As for `CNc1nc(Nc2ccc(-n3cnc(Cl)c3)c(OC)c2)nc2c1CCC2c1cc(F)cc(F)c1` (stereo not drawn) [Example 102B, N^2-(4-(4-Chloro-1H-imidazol-1-yl)-3-methoxyphenyl)-7-(3,5-difluorophenyl)-N^4-methyl-6,7-dihydro-5H-cyclopenta[d]pyrimidine-2,4-diamine], the IC50 is 10 to 100 nM. For the compound `CCNc1nc(Nc2ccc(-n3cnc(Cl)c3)c(OC)c2)nc2c1COCC2c1ccc(F)c(F)c1` (stereo not drawn) [Example 113A, N2-(4-(4-chloro-1H-imidazol-1-yl)-3-methoxyphenyl)-8-(3,4-difluorophenyl)-N4-ethyl-7,8-dihydro-5H-pyrano[4,3-d]pyrimidine-2,4-diamine], the 50% inhibitory concentration (IC50) was 1.5 to 9.9 nM. Still for that read-out and setting: the same measure for `CCNc1nc(Nc2ccc(-n3cnc(Cl)c3)c(OC)c2)nc2c1CCC2(C)c1ccccc1` (stereo not drawn) [Example 110A, N2-(4-(4-chloro-1H-imidazol-1-yl)-3-methoxyphenyl)-N4-ethyl-7-methyl-7-phenyl-6,7-dihydro-5H-cyclopenta[d]pyrimidine-2,4-diamine]: 1.5 to 9.9 nM; for `CNc1nc(Nc2ccc(-n3cnc(Cl)c3)c(OC)c2)nc2c1COCC2c1ccc(C(F)(F)F)cc1` (stereo not drawn) [Example 120A, N2-(4-(4-chloro-1H-imidazol-1-yl)-3-methoxyphenyl)-N4-methyl-8-(4-(trifluoromethyl)phenyl)-7,8-dihydro-5H-pyrano[4,3-d]pyrimidine-2,4-diamine]: 1.5 to 9.9 nM. Regarding `CNc1nc(Nc2ccc(-n3ncnc3C)c(F)c2)nc2c1CCC2c1ccc(F)cc1` (single isomer, unassigned) [Example 26B, N^2-(3-fluoro-4-(5-methyl-1H-1,2,4-triazol-1-yl)phenyl)-7-(4-fluorophenyl)-N^4-methyl-6,7-dihydro-5H-cyclopenta[d]pyrimidine-2,4-diamine], the IC50 fell in the range of 10 to 100 nM.

Still in this assay, the particulars now being: H4 APP751 SWE clone 8.20 cells, 19 h incubation; read-out: Activity Rating (Aβ42 cellular IC50), numeric value.
In the case of `CNc1nc(Nc2ccc(C#N)cc2)nc2c1CCC2c1ccccc1` (stereo not drawn) [Example 227, 4-(4-(methylamino)-7-phenyl-6,7-dihydro-5H-cyclopenta[d]pyrimidin-2-ylamino)benzonitrile], the IC50 was 12 nM.
